Assay results as given in patent publication US8729091B2, “4-phenoxy-nicotinamide or 4-phenoxy-pyrimidine-5-carboxamide compounds” (Hoffmann-La Roche Inc., priority 2010, dated 2014).

Biological target: T1, human GPBAR1 receptor (Homo sapiens, UniProt Q8TDU6)
T1 construct: expressed in transfected cells
T1 sequence (Q8TDU6 1-330): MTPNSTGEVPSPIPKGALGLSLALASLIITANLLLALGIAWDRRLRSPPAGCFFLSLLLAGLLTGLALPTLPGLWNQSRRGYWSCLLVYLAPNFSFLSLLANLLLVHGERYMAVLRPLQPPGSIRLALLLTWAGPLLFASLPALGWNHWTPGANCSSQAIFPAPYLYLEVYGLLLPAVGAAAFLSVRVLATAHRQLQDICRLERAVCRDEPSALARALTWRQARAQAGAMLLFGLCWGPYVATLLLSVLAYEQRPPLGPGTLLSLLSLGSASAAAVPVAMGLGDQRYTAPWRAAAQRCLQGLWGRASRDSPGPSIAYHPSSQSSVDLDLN
Test: functional cAMP assay in CHO-dhfr(minus) cells expressing human GPBAR1 receptors
Assay type: cell-based
Settings: cAMP increase (TR-FRET) in CHO-dhfr(minus) cells expressing human GPBAR1; compounds incubated 30 min at 30° C.
Method: The final clone was verified by DNA sequence analysis. The plasmid was transfected into CHO cells deficient in dihydrofolate reductase activity (CHO-dhfr−) using Lipofectamine plus (Invitrogen). Clones were isolated in limited dilution conditions and identified by activities in the cAMP assay using lithocholic acid as agonist.
The growth medium was exchanged with Krebs Ringer Bicarbonate buffer with 1 mM IBMX and incubated at 30° C. for 30 min. Compounds were added to a final assay volume of 100 μl and incubated for 30 min at 30° C. […] The time-resolved energy transfer is measured by a TRF reader (Evotec Technologies GmbH, Hamburg Germany), equipped with a ND:YAG laser as excitation source.
EC50 values were determined using Activity Base analysis (ID Business Solution, Limited). […] Specificity for GPBAR1 was tested in non-transfected CHO cells in the same assay as above.

Row | EC50 [nM] | Structure (SMILES)
1 | 1 | Cc1cc(Oc2cc(Cl)ccc2Cl)c(C(=O)N2CCN(C3CC3)c3ccccc32)cn1 [Example 63, (4-Cyclopropyl-3,4-dihydro-2H-quinoxalin-1-yl)-[4-(2,5-dichloro-phenoxy)-6-methyl-pyridin-3-yl]-methanone]
2 | 20 | Cc1cc(Oc2cc(Cl)c(Br)cc2Cl)c(C(=O)N2CCN(C3CC3)c3ccccc32)cn1 [Example 64, [4-(4-Bromo-2,5-dichloro-phenoxy)-6-methyl-pyridin-3-yl]-(4-cyclopropyl-3,4-dihydro-2H-quinoxalin-1-yl)-methanone]
3 | 20 | COC(=O)c1cc(Cl)c(Oc2cc(C)ncc2C(=O)N2CCN(C3CC3)c3ccccc32)cc1Cl [Example 65, 2,5-Dichloro-4-[5-(4-cyclopropyl-3,4-dihydro-2H-quinoxaline-1-carbonyl)-2-methyl-pyridin-4-yloxy]-benzoic acid methyl ester]
4 | 300 | Cc1cc(Oc2cc(Cl)c(C(=O)O)cc2Cl)c(C(=O)N2CCN(C3CC3)c3ccccc32)cn1 [Example 66, 2,5-Dichloro-4-[5-(4-cyclopropyl-3,4-dihydro-2H-quinoxaline-1-carbonyl)-2-methyl-pyridin-4-yloxy]-benzoic acid]
5 | 20 | CCOC(=O)CCNC(=O)c1cc(Cl)c(Oc2cc(C)ncc2C(=O)N2CCN(C3CC3)c3ccccc32)cc1Cl [Example 67, 3-{2,5-Dichloro-4-[5-(4-cyclopropyl-3,4-dihydro-2H-quinoxaline-1-carbonyl)-2-methyl-pyridin-4-yloxy]-benzoylamino}-propionic acid ethyl ester]
6 | 200 | Cc1cc(Oc2cc(Cl)c(C(=O)NCCC(=O)O)cc2Cl)c(C(=O)N2CCN(C3CC3)c3ccccc32)cn1 [Example 68, 3-{2,5-Dichloro-4-[5-(4-cyclopropyl-3,4-dihydro-2H-quinoxaline-1-carbonyl)-2-methyl-pyridin-4-yloxy]-benzoylamino}-propionic acid]
7 | 40 | COC(=O)CNC(=O)c1cc(Cl)c(Oc2cc(C)ncc2C(=O)N2CCN(C3CC3)c3ccccc32)cc1Cl [Example 69, {2,5-Dichloro-4-[5-(4-cyclopropyl-3,4-dihydro-2H-quinoxaline-1-carbonyl)-2-methyl-pyridin-4-yloxy]-benzoylamino}-acetic acid methyl ester]
8 | 400 | Cc1cc(Oc2cc(Cl)c(C(=O)NCC(=O)O)cc2Cl)c(C(=O)N2CCN(C3CC3)c3ccccc32)cn1 [Example 70, {2,5-Dichloro-4-[5-(4-cyclopropyl-3,4-dihydro-2H-quinoxaline-1-carbonyl)-2-methyl-pyridin-4-yloxy]-benzoylamino}-acetic acid]
9 | 100 | Cc1cc(Oc2cc(Cl)c(C(=O)Nc3nnn[nH]3)cc2Cl)c(C(=O)N2CCN(C3CC3)c3ccccc32)cn1 [Example 71, 2,5-Dichloro-4-[5-(4-cyclopropyl-3,4-dihydro-2H-quinoxaline-1-carbonyl)-2-methyl-pyridin-4-yloxy]-N-(1H-tetrazol-5-yl)-benzamide]
10 | 400 | Cc1cc(Oc2cc(Cl)c(C(=O)NCc3nnn[nH]3)cc2Cl)c(C(=O)N2CCN(C3CC3)c3ccccc32)cn1 [Example 72, 2,5-Dichloro-4-[5-(4-cyclopropyl-3,4-dihydro-2H-quinoxaline-1-carbonyl)-2-methyl-pyridin-4-yloxy]-N-(1H-tetrazol-5-ylmethyl)-benzamide]
11 | 50 | Cc1cc(Oc2cc(Cl)ccc2Cl)c(C(=O)N2CCN(C3CC3)c3ccccc32)c(Cl)n1 [Example 73, [2-Chloro-4-(2,5-dichloro-phenoxy)-6-methyl-pyridin-3-yl]-(4-cyclopropyl-3,4-dihydro-2H-quinoxalin-1-yl)-methanone]
12 | 22 | O=C(c1cnc(Cl)cc1Oc1cc(Cl)ccc1Cl)N1CCCc2ccccc21 [Example 74, [6-Chloro-4-(2,5-dichloro-phenoxy)-pyridin-3-yl]-(3,4-dihydro-2H-quinolin-1-yl)-methanone]
13 | 10 | O=C(c1c[n+]([O-])ccc1Oc1cc(Cl)ccc1Cl)N1CCN(C2CC2)c2ccccc21 [Example 75, (4-Cyclopropyl-3,4-dihydro-2H-quinoxalin-1-yl)-[4-(2,5-dichloro-phenoxy)-1-oxy-pyridin-3-yl]-methanone]
14 | 400 | O=C(c1cncnc1Oc1cc(Cl)ccc1Cl)N1CCCc2cc(F)ccc21 [Example 77, [4-(2,5-Dichloro-phenoxy)-pyrimidin-5-yl]-(6-fluoro-3,4-dihydro-2H-quinolin-1-yl)-methanone]
15 | 300 | O=C(c1cncnc1Oc1cc(Cl)ccc1Cl)N1CCNc2ccccc21 [Example 78, [4-(2,5-Dichloro-phenoxy)-pyrimidin-5-yl]-(3,4-dihydro-2H-quinoxalin-1-yl)-methanone]
16 | 90 | COc1ncccc1N(C)C(=O)c1cncnc1Oc1cc(Cl)ccc1Cl [Example 80, 4-(2,5-Dichloro-phenoxy)-pyrimidine-5-carboxylic acid (2-methoxy-pyridin-3-yl)-methyl-amide]
